Results from patent US8536210B2, “Compounds for inhibiting semicarbazide-sensitive amine oxidase (SSAO)/vascular adhesion protein-1 (VAP-1) and uses thereof for treatment and prevention of diseases” (Semmelweis Egyetem, priority 2008, dated 2013).

Tests used:
[1] = target: human recombinant VAP-1 (SSAO/VAP-1 enzyme) (Homo sapiens (Human), UniProt Q16853); assay: In vitro inhibition of SSAO activity on human recombinant VAP-1 (colorimetric, benzylamine substrate); assay type: biochemical; details: for IC50: recombinant SSAO/VAP-1 in CHO cell homogenate, 1 mM benzyl amine
Description: For determining the SSAO/VAP-1 activity, the colorimetric method described by Holt, A (Holt, A., Anal. Biochem. 244, 384, 1997) for monoamine oxidase and analogous enzymes was used. Recombinant SSAO/VAP-1 enzyme was expressed in Chinese Hamster Ovary cells (CHO). These cells and cell cultures have been described earlier (Smith, D. J. et al, J. Exp. Med. 188, 17, 1998). The cell homogenate was prepared as follows: a suspension was made of approximately 3.6×10^8 cells in 25 ml lysation buffer (150 mM NaCl, 10 mM Tris-base pH 7.2, 1.5 mM MgCl2, 1% NP40), that was stirred for 1 night and incubated at 4° C. The homogenate was centrifugated (18000 g). The supernatant was used directly afterwards for the measurement. SSAO/VAP-1 activity measurement was carried out as follows on 96 precisely microtitrated plates, a given amount of inhibitor was added to each. The amount of the inhibitors varied among the measurements, the final concentration being between 1 nM and 50 μM in general, in 20 μl aqueous total volume for all cases. Then 0.2 M potassium phosphate buffer (pH=7.6) was added, to obtain a total volume of 200 μl 50 μl freshly prepared chromogen solution was given, which contains 1 mM of vanillic acid, 500 μM 4-aminoantipyrin, 8 U/ml horse radish peroxidase, and such an amount of SSAO/VAP-1 containing CHO cell homogenate that causes a 0.6 A-490 per h change, the latter being in the linear coherence scope of the method. The plates were incubated for 30 min at 37° C. and the background absorbance was measured at 490 nm by a Wallac Victor II apparatus. For starting the enzyme reaction, 20 μl 10 mM benzyl amine solution was added, the final concentration of which was therefore 1 mM. The plates were reincubated at 37° C. for 1 h. The increase in the absorbance showing the SSAO/VAP-1 activity was measured at 490 nm. The inhibition was calculated in the % of the control absorbance corrected with the background absorbance, IC50 values were calculated using GraphPad Prism.

[2] = test system: carrageenan-induced rat paw edema; assay: Inhibition of carrageenan-induced rat paw edema; assay type: in vivo
Description: Carrageenan-induced rat paw edema has been extensively used in the evaluation of anti-inflammatory effects of various agents and it is useful in assessing the efficacy of compounds to alleviate acute inflammation (Whiteley P E, Dalrymple S A (1998) Models of inflammation: carrageenan-induced paw edema in the rat, in Current Protocols in Pharmacology (Enna S J, Williams M, Ferkany J W, Kenakin T, Porsolt R E, Sullivan J P eds) pp 5.4.1-5.4.3, John Wiley & Sons, New York.). Edema in the paws was induced by injecting 0.1 ml of a 1% solution of carrageenan intraplantary. […] […] Inhibitory effects are expressed in % values.

[3] = test system: acetic acid induced writhing syndrome; assay: Inhibition of acetic acid induced writhing on mice; assay type: in vivo; details: 20 minutes prior to acetic acid
Description: The method described by Van der Wende (Van der Vende C, Margolin S, Fed. Proc., 15, 494, 1956) with the modifications of Witkin et al. (Witkin L B et al, J. Pharm. Exp. Ther., 133, 400, 1961) was applied. 0.2 ml of a 0.6% acetic acid solution was injected intraperitoneally, causing a typical writhing syndrome in 90% of the animals. Compounds of the invention were administered subcutaneously, 20 minutes prior to acetic acid exposure. Antianalgetic effect was determined by the formula, which is shown below, and is expressed in % values. (number of writhings in treatment group (5′)/number of writhings in control group (5′))×100

Sequence of human recombinant VAP-1 (SSAO/VAP-1 enzyme) (Q16853 whole entry): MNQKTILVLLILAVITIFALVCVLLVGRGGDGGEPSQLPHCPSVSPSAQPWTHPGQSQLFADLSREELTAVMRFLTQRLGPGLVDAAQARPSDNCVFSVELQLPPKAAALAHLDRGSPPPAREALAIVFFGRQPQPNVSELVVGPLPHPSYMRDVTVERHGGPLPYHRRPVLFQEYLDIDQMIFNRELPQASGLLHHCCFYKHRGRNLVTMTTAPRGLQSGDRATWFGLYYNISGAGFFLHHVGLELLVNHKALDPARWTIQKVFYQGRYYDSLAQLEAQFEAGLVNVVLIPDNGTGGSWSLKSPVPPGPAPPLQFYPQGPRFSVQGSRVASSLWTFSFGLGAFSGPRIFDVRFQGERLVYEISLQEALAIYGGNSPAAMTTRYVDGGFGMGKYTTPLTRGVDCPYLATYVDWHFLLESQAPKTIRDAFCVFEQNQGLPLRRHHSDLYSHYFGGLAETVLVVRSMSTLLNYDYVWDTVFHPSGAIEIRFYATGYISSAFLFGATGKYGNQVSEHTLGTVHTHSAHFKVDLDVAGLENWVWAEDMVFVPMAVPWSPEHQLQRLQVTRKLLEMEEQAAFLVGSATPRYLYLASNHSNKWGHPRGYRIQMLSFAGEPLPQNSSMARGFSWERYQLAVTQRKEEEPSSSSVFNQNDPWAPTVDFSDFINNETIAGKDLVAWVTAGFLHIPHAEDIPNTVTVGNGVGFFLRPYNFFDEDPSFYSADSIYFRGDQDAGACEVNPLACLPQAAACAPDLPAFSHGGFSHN

CCSc1c(C=NO)c(=O)n(C)c(=O)n1C [Compound 23, 6-(Ethylthio)-1,3-dimethyl-2,4-dioxo-1,2,3,4-tetrahydropyrimidine-5-carbaldehyde oxime]
IC50 [1]: 111 µM

CCOc1c(C=NO)c(=O)n(C)c(=O)n1C [Compound 16, 6-Ethoxy-1,3-dimethyl-2,4-dioxo-1,2,3,4-tetrahydropyrimidine-5-carbaldehyde oxime]
Inhibition of rat paw edema in % ([2]; 30 mg/kg s.c., 60 min): 8 ± 1% | Inhibition of rat paw edema in % ([2]; 30 mg/kg s.c., 120 min): 19 ± 2% | Inhibition of rat paw edema in % ([2]; 30 mg/kg s.c., 180 min): 31 ± 4% | Inhibition of writhing syndrome in % ([3]; 15 mg/kg s.c.): 86 ± 7 % | Inhibition of writhing syndrome in % ([3]; 30 mg/kg s.c.): 96 ± 6 %

Cn1nc2c(c(C=NO)c1=O)N1CCCC1CO2 (centres unmarked) [Compound 35, 3-Methyl-2-oxo-2,3,6a,7,8,9-hexahydro-6H-pyridazino[3,4-b]pyrrolo[1,2-d][1,4]oxazine-1-carbaldehyde oxime]
inhibition at 500 µM [1]: 55%

COc1cccc(C=NO)c1C [Compound 1, 3-Methoxy-2-methylbenzaldehyde oxime]
melting point: 110 °C | IC50 [1]: 102 µM

ON=Cc1cccc2cccc(N3CCCC3)c12 [Compound 5, 8-Pyrrolidino-1-naphthaldehyde oxime]
inhibition at 50 µM ([1]; at 50 μM): 32%

ON=CCCc1nc(-c2ccccc2)c(-c2ccccc2)o1 [Compound 40, 3-(4,5-Diphenyl-1,3-oxazol-2-yl)propanal oxime]
IC50 [1]: 3.5 µM

COc1ccc2c(c1)c(CC(=O)O)c(C)n2C(=O)c1ccc(Cl)cc1 [Indomethacin, reference compound]
Inhibition of rat paw edema in % ([2]; 2.5 mg/kg p.o., 60 min): 32 ± 2 % | Inhibition of rat paw edema in % ([2]; 2.5 mg/kg p.o., 120 min): 51 ± 4 % | Inhibition of rat paw edema in % ([2]; 2.5 mg/kg p.o., 180 min): 53 ± 5 %

Cn1ncc(N2CCCC2)c(-c2ccccc2C=NO)c1=O [Compound 38, 2-(2-Methyl-3-oxo-5-pyrrolidino-2,3-dihydropyridazin-4-yl)benzaldehyde oxime]
inhibition at 500 µM [1]: 31%

CCOc1ccc2c(c1C=NO)OCO2 [Compound 7, 5-Ethoxy-1,3-benzodioxole-4-carbaldehyde oxime]
IC50 [1]: 40 µM

CCCOc1c(C=NO)c(=O)n(C)c(=O)n1C [Compound 18, 1,3-Dimethyl-2,4-dioxo-6-propoxy-1,2,3,4-tetrahydropyrimidine-5-carbaldehyde oxime]
IC50 [1]: 18 µM

ON=Cc1c(Br)ccc2c1OCO2 [Compound 9, 5-Bromo-1,3-benzodioxole-4-carbaldehyde oxime]
Inhibition of rat paw edema in % ([2]; 7.5 mg/kg s.c., 60 min): 63 ± 7 % | Inhibition of rat paw edema in % ([2]; 7.5 mg/kg s.c., 120 min): 62 ± 6 % | Inhibition of rat paw edema in % ([2]; 7.5 mg/kg s.c., 180 min): 66 ± 5 % | Inhibition of rat paw edema in % ([2]; 15 mg/kg s.c., 60 min): 53 ± 5 % | Inhibition of rat paw edema in % ([2]; 15 mg/kg s.c., 120 min): 52 ± 3 % | Inhibition of rat paw edema in % ([2]; 15 mg/kg s.c., 180 min): 66 ± 7 % | Inhibition of rat paw edema in % ([2]; 30 mg/kg p.o., 60 min): 0% | Inhibition of rat paw edema in % ([2]; 30 mg/kg p.o., 120 min): 5 ± 1% | Inhibition of rat paw edema in % ([2]; 30 mg/kg p.o., 180 min): 0% | Inhibition of rat paw edema in % ([2]; 30 mg/kg s.c., 60 min): 54 ± 6 % | Inhibition of rat paw edema in % ([2]; 30 mg/kg s.c., 120 min): 40 ± 5 % | Inhibition of rat paw edema in % ([2]; 30 mg/kg s.c., 180 min): 50 ± 5 % | Inhibition of writhing syndrome in % ([3]; 15 mg/kg s.c.): 84 ± 8 % | Inhibition of writhing syndrome in % ([3]; 30 mg/kg s.c.): 80 ± 7 % | IC50 [1]: 14.9 µM

ON=Cc1c(O)ccc2c1OCO2 [Compound 6, 5-Hydroxy-1,3-benzodioxole-4-carbaldehyde oxime]
IC50 [1]: 4.3 µM

CC1Oc2ccc(Br)c(C=NO)c2O1 (centres unmarked) [Compound 10, 5-Bromo-2-methyl-1,3-benzodioxole-4-carbaldehyde oxime]
inhibition at 500 µM [1]: 35%

C=CCN(C)c1c(C=NO)c(=O)n(C)c(=O)n1C [Compound 27, 6-[Allyl(methyl)amino]-1,3-dimethyl-2,4-dioxo-1,2,3,4-tetrahydropyrimidine-5-carbaldehyde oxime]
IC50 [1]: 41 µM

CSc1c(C=NO)c(=O)n(C)c(=O)n1C [Compound 22, 1,3-Dimethyl-6-(methylthio)-2,4-dioxo-1,2,3,4-tetrahydropyrimidine-5-carbaldehyde oxime]
Inhibition of rat paw edema in % ([2]; 7.5 mg/kg s.c., 60 min): 15 ± 2% | Inhibition of rat paw edema in % ([2]; 7.5 mg/kg s.c., 120 min): 55 ± 5 % | Inhibition of rat paw edema in % ([2]; 7.5 mg/kg s.c., 180 min): 60 ± 5 % | Inhibition of rat paw edema in % ([2]; 15 mg/kg s.c., 60 min): 60 ± 6 % | Inhibition of rat paw edema in % ([2]; 15 mg/kg s.c., 120 min): 63 ± 7 % | Inhibition of rat paw edema in % ([2]; 15 mg/kg s.c., 180 min): 65 ± 7 % | Inhibition of rat paw edema in % ([2]; 30 mg/kg p.o., 60 min): 0% | Inhibition of rat paw edema in % ([2]; 30 mg/kg p.o., 120 min): 21 ± 2% | Inhibition of rat paw edema in % ([2]; 30 mg/kg p.o., 180 min): 21 ± 2% | Inhibition of rat paw edema in % ([2]; 30 mg/kg s.c., 60 min): 58 ± 7 % | Inhibition of rat paw edema in % ([2]; 30 mg/kg s.c., 120 min): 54 ± 5 % | Inhibition of rat paw edema in % ([2]; 30 mg/kg s.c., 180 min): 72 ± 8 % | Inhibition of writhing syndrome in % ([3]; 5 mg/kg s.c.): 70 ± 5 % | Inhibition of writhing syndrome in % ([3]; 15 mg/kg s.c.): 100% | IC50 [1]: 48 µM

COc1c(C=NO)c(=O)n(C)c(=O)n1C [Compound 17, 6-Methoxy-1,3-dimethyl-2,4-dioxo-1,2,3,4-tetrahydropyrimidine-5-carbaldehyde oxime]
IC50 [1]: 30 µM

Cn1ncc(N2CCCCC2)c(/C=N/O)c1=O [Compound 29, E-2-Methyl-3-oxo-5-piperidino-2,3-dihydropyridazine-4-carbaldehyde oxime]
IC50 [1]: 240 µM

CCCSc1c(C=NO)c(=O)n(C)c(=O)n1C [Compound 21, 1,3-Dimethyl-2,4-dioxo-6-(propylthio)-1,2,3,4-tetrahydropyrimidine-5-carbaldehyde oxime]
IC50 [1]: 58 µM

Cn1c(Sc2ccccc2)c(C=NO)c(=O)n(C)c1=O [Compound 24, 1,3-Dimethyl-2,4-dioxo-6-(phenylthio)-1,2,3,4-tetrahydropyrimidine-5-carbaldehyde oxime]
IC50 [1]: 106 µM

COc1ccc(Cn2ncc(N3CCOCC3)c(/C=N/O)c2=O)cc1 [Compound 32, E-2-(4-Methoxybenzyl)-5-morpholino-3-oxo-2,3-dihydropyridazine-4-carbaldehyde oxime]
IC50 [1]: 263 µM

C=CCOc1ccc2c(c1C=NO)OCO2 [Compound 8, 5-(Allyloxy)-1,3-benzodioxole-4-carbaldehyde oxime]
IC50 [1]: 95 µM

CCOc1c(C=NOC)c(=O)n(C)c(=O)n1C [Compound 19, 6-Ethoxy-1,3-dimethyl-2,4-dioxo-1,2,3,4-tetrahydropyrimidine-5-carbaldehyde O-methyloxime]
IC50 [1]: 29 µM

CCSc1c(C=NOC)c(=O)n(C)c(=O)n1C [Compound 25, 6-(Ethylthio)-1,3-dimethyl-2,4-dioxo-1,2,3,4-tetrahydropyrimidine-5-carbaldehyde O-methyloxime]
IC50 [1]: 113 µM

ON=Cc1ccccc1-c1ccc2c(c1C=NO)OCO2 [Compound 12, 5-{2-[(hydroxyimino)methyl]phenyl}-1,3-benzodioxole-4-carbaldehyde oxime]
IC50 [1]: 180 µM
